Measured values from ChEMBL document CHEMBL5137030 (Eur J Med Chem, 2022).
Calls of active or inactive are those of the source. The rule behind the calls is not given here.

Experiments:
[1] = system: Human alphaherpesvirus 2; assay: Antiviral activity against HSV-2 infected in African green monkey Vero cells assessed as inhibition of viral replication incubated for 1 hr followed by washing with PBS and subsequent treatment with compound for 24 hrs by plaque reduction assay; assay type: functional, organism-based; details: Human alphaherpesvirus 2, Vero
[2] = system: Human alphaherpesvirus 1; assay: Antiviral activity against HSV-1 infected in African green monkey Vero cells assessed as inhibition of viral replication by measuring log suppression of virus-induced cytopathic effect at 1 uM incubated for 1 hr followed by washing with PBS and subsequent treatment with compound for 24 hrs by plaque assay; assay type: functional; details: time 25 hrs
[3] = Cytotoxicity against human HepDES19 cells assessed as reduction in cell viability incubated for 72 hrs by MTS assay; assay type: toxicity, cell-based; details: hepdes19, 72 h
[4] = system: Human alphaherpesvirus 2; assay: Antiviral activity against HSV-2 infected in African green monkey Vero cells assessed as inhibition of viral replication by measuring log suppression of virus-induced cytopathic effect at 1 uM incubated for 1 hr followed by washing with PBS and subsequent treatment with compound for 24 hrs by plaque assay; assay type: functional; details: time 25 hrs
[5] = system: Human alphaherpesvirus 2; assay: Antiviral activity against HSV-2 infected in African green monkey Vero cells assessed as inhibition of viral replication by measuring log suppression of virus-induced cytopathic effect at 5 uM incubated for 1 hr followed by washing with PBS and subsequent treatment with compound for 24 hrs by plaque assay; assay type: functional; details: time 25 hrs
[6] = system: Human alphaherpesvirus 2; assay: Antiviral activity against HSV-2 333vhsB infected in African green monkey Vero cells assessed as inhibition of viral replication by measuring reduction in virus-induced cytopathic effect at 50 uM incubated for 20 hrs by colorimetric analysis; assay type: functional, organism-based
[7] = system: Human alphaherpesvirus 1; assay: Antiviral activity against HSV-1 infected in African green monkey Vero cells assessed as inhibition of viral replication by measuring log suppression of virus-induced cytopathic effect at 5 uM incubated for 1 hr followed by washing with PBS and subsequent treatment with compound for 24 hrs by plaque assay; assay type: functional; details: time 25 hrs
[8] = Half life in mouse liver microsomes at 2 uM in presence of NADPH by LC/MS/MS analysis; assay type: ADME, Microsome
[9] = Apparent permeability of the compound across apical to basolateral side in human Caco-2 cells at 10 uM incubated for 2 hrs; assay type: ADME, cell-based; details: caco-2, 2 h
[10] = Half life in human liver microsomes at 2 uM in presence of NADPH by LC/MS/MS analysis; assay type: ADME, Microsome
[11] = system: Human alphaherpesvirus 1; assay: Antiviral activity against HSV-1 infected in African green monkey Vero cells assessed as inhibition of viral replication incubated for 1 hr followed by washing with PBS and subsequent treatment with compound for 24 hrs by plaque reduction assay; assay type: functional, organism-based; details: Human alphaherpesvirus 1, Vero

Compound | EC50 [1] | log(activity) [2] | CC50 [3] | log(activity) [4] | log(activity) [5] | Activity [6] | log(activity) [7] | t1/2 [8] | Papp [9] | t1/2 [10] | EC50 [11]
Cc1cccc(-c2cc(CC3CCCCC3)n(O)c(=O)c2)c1 | 310 nM | 4.22 | 16000 nM | 3.26 | 3.95 | Active | 4.59 | – | – | – | –
Cc1cc(Cc2ccc3ccccc3c2)n(O)c(=O)c1 | – | – | – | 1.34 | 3.63 | Active | – | – | – | – | –
Cc1cc(Cc2ccccc2Cl)n(O)c(=O)c1 | – | – | – | 2.46 | 4.3 | Active | – | – | – | – | –
Cc1cc(C2CCC2)n(O)c(=O)c1 | – | – | – | 0.26 | 1.45 | Active | – | – | – | – | –
O=c1cc(C2CCCCC2)ccn1O | – | – | – | 0.2 | 0.04 | Active | – | – | – | – | –
COc1ccc(Cc2cc(C)cc(=O)n2O)cc1 | – | – | – | 1.23 | 4.04 | Active | – | – | – | – | –
O=c1cc(Cc2ccccc2)cc(CC2CCCCC2)n1O | – | – | – | 2.39 | 4.83 | Active | – | – | – | – | –
Cc1cc(Cc2cccc(-c3ccccc3)c2)n(O)c(=O)c1 | 390 nM | – | 24000 nM | 4.22 | 4.2 | Active | – | < 5 min | 1.09 10^-6 cm/s | < 5 min | –
Cc1ccccc1-c1cc(CC2CCCCC2)n(O)c(=O)c1 | – | – | – | 0.14 | 5.65 | Active | – | – | – | – | –
COc1ccccc1Cc1cc(C)cc(=O)n1O | – | – | – | 1.02 | 3.9 | Active | – | – | – | – | –
Cc1cc(Cc2cccc(Cl)c2)n(O)c(=O)c1 | – | – | – | 1.82 | 4 | Active | – | – | – | – | –
O=c1ccc(Cc2ccccc2)cn1O | – | – | – | 0.1 | -0.03 | Active | – | – | – | – | –
Nc1nc2c(ncn2COCCO)c(=O)[nH]1 [ACYCLOVIR] | – | 2.42 | – | 1.79 | 2.9 | – | 3.36 | – | – | – | –
O=c1cc(-c2ccccc2)cc(Cc2ccccc2)n1O | 410 nM | – | 18000 nM | 2.72 | 5.29 | Active | – | – | – | – | –
Cc1cc(C2CCN(C(=O)C(C)C)CC2)n(O)c(=O)c1 | – | – | – | -0.08 | 0.4 | Active | – | – | – | – | –
O=c1cccc(Cc2ccccc2)n1O | – | – | – | 0.34 | 2.75 | Active | – | – | – | – | –
Cc1cc2ccccc2c(=O)n1O | – | – | – | 0.01 | 0.28 | Active | – | – | – | – | –
O=c1cc(-c2ccccc2)cc(CC2CCCCC2)n1O | 390 nM | – | 20000 nM | 4.84 | 5.29 | Active | – | < 5 min | 2.75 10^-6 cm/s | < 5 min | –
O=c1cc(Cc2ccccc2)ccn1O | – | – | – | 0.4 | 0.03 | Active | – | – | – | – | –

Compound | EC50 [1] | log(activity) [2] | CC50 [3] | log(activity) [4] | log(activity) [5] | Activity [6] | log(activity) [7] | t1/2 [8] | Papp [9] | t1/2 [10] | EC50 [11]
Cc1cc(C2CCCCCC2)n(O)c(=O)c1 | 160 nM | 4.67 | 18000 nM | 4.15 | 5.09 | Active | 5.27 | 8 min | 5.74 10^-6 cm/s | < 5 min | 60 nM
O=c1cc(Cc2ccccc2)cc(Cc2ccccc2)n1O | – | – | – | 0.29 | 4.7 | Active | – | – | – | – | –
O=c1c2ccccc2cc(C2CCCCC2)n1O | – | – | – | 1.01 | 4.48 | Active | – | – | – | – | –
O=c1cccc(C2CCCCC2)n1O | 550 nM | – | 22000 nM | 1.23 | 5.01 | Active | – | – | – | – | –
O=c1c2ccccc2cc(-c2ccccc2)n1O | – | – | – | 0.01 | 4.04 | Active | – | – | – | – | –
Cc1ccc(-c2cc(CC3CCCCC3)n(O)c(=O)c2)cc1 | – | – | – | 0.02 | 0.34 | Active | – | – | – | – | –
Cc1cc(Cc2cccc(OCc3ccccc3)c2)n(O)c(=O)c1 | 220 nM | – | 22000 nM | 4.04 | 4.4 | Active | – | < 5 min | 1.37 10^-6 cm/s | < 5 min | –
O=c1c2ccccc2cc(Cc2ccccc2)n1O | – | – | – | 0.73 | 4.03 | Active | – | – | – | – | –
O=c1cc(/C=C/c2ccccc2)cc(Cc2ccccc2)n1O | – | – | – | 1.46 | 4.62 | Active | – | – | – | – | –
O=c1cc(/C=C/c2ccccc2)cc(CC2CCCCC2)n1O | 270 nM | 4.33 | 20000 nM | 4.95 | 4.77 | Active | 4.42 | – | – | – | –
Cc1cc(C2CCOCC2)n(O)c(=O)c1 | – | – | – | -0.23 | 0.09 | Active | – | – | – | – | –
O=c1cc(-c2ccccc2)ccn1O | – | – | – | 0.05 | 0.02 | Active | – | – | – | – | –
O=c1ccc(C2CCCCC2)cn1O | – | – | – | 0.67 | 3.62 | Active | – | – | – | – | –
O=c1ccc(-c2ccccc2)cn1O [1-HYDROXY-5-PHENYLPYRIDIN-2(1H)-ONE] | – | – | – | -0.03 | 0 | Active | – | – | – | – | –
O=c1c2ccccc2cc(CC2CCCCC2)n1O | 280 nM | 4.16 | 49000 nM | 2.68 | 4.77 | Active | 4.32 | – | – | – | 240 nM
Cc1cc(Cc2ccccc2-c2ccccc2)n(O)c(=O)c1 | 160 nM | – | 14000 nM | 3.17 | 4.49 | Active | – | < 5 min | 2.03 10^-7 cm/s | < 5 min | –
Cc1cc(C2CCCC2)n(O)c(=O)c1 | – | – | – | 0.37 | 2.38 | Active | – | – | – | – | –
Cc1cc(Cc2ccc(OCc3ccccc3)cc2)n(O)c(=O)c1 | 130 nM | 4.74 | 19000 nM | 4.1 | 4.25 | Active | 5.18 | – | 9.42 10^-7 cm/s | – | –
